Test results as given in US20100317647A1 (priority 2009, published 2010).

target: human Cat S (Homo sapiens, UniProt P25774); assay: Cathepsin enzyme inhibition assay (fluorogenic peptide substrate cleavage); type: biochemical; conditions: human Cat S 1 nM; substrate Z-Val-Val-Arg-AMC 20 μM; pH 6.5; fluorescence over 20 minutes
Outline: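 Fluorogenic cleavage of Z-Val-Val-Arg-AMC (20 μM) by 1 nM enzyme in 100 mM potassium phosphate pH 6.5, 5 mM EDTA, 5 mM DTT, 0.001% Triton X-100. Reaction started with substrate; fluorescence (ex 360/em 465 nm) followed over 20 minutes. IC50 by standard methods.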

human Cat S, sequence (P25774 115-331): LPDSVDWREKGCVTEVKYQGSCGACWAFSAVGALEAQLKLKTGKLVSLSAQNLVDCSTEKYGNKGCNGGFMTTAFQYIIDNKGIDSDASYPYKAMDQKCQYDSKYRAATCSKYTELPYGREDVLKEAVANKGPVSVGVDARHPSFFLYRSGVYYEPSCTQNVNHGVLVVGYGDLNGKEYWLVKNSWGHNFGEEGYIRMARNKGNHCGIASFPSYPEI

How did the IC50 turn out when `CCN1CCC(C#N)(NC(=O)[C@@H]2C[C@@H](S(=O)(=O)c3ccccc3C(F)(F)F)C[C@H]2OCc2ccc(Cl)cc2)CC1` (racemic) [Example 239, (1R,2R,4R) and (1S,2S,4S)-2-(4-Chloro-benzyloxy)-4-(2-trifluoromethyl-benzenesulfonyl)-cyclopentanecarboxylic acid (4-cyano-1-ethyl-piperidin-4-yl)-amide] was run?
Its IC50 is 6.25 nM.

Which IC50 does the source give for `CCN1CCC(C#N)(NC(=O)[C@@H]2C[C@@H](S(=O)(=O)c3ccc(Cl)cc3Cl)C[C@H]2OCc2ccc(Cl)cc2)CC1` (racemic) [Example 240, (1R,2R,4R) and (1S,2S,4S)-2-(4-Chloro-benzyloxy)-4-(2,4-dichloro-benzenesulfonyl)-cyclopentanecarboxylic acid (4-cyano-1-ethyl-piperidin-4-yl)-amide] here?
The IC50 was 25.5 nM.

How did the IC50 turn out when `CCOC(=O)N1CCC(C#N)(NC(=O)[C@@H]2C[C@@H](S(=O)(=O)c3ccccc3C(F)(F)F)C[C@H]2OCc2ccc(Cl)cc2)CC1` (racemic) [Example 241, 4-{[(1R,2R,4R) and (1S,2S,4S)-2-(4-Chloro-benzyloxy)-4-(2-trifluoromethyl-benzenesulfonyl)-cyclopentanecarbonyl]-amino}-4-cyano-piperidine-1-carboxylic acid ethyl ester] was run?
The IC50 was 12 nM.

How did the IC50 turn out when `CCOC(=O)N1CCC(C#N)(NC(=O)[C@@H]2C[C@@H](S(=O)(=O)c3ccc(Cl)cc3Cl)C[C@H]2OCc2ccc(Cl)cc2)CC1` (racemic) [Example 242, 4-{[(1R,2R,4R) and (1S,2S,4S)-2-(4-Chloro-benzyloxy)-4-(2,4-dichloro-benzenesulfonyl)-cyclopentanecarbonyl]-amino}-4-cyano-piperidine-1-carboxylic acid ethyl ester] was run?
The IC50 was 92 nM.

With `N#CC1(NC(=O)[C@@H]2C[C@@H](S(=O)(=O)c3ccccc3Cl)C[C@H]2Oc2ccc(Cl)cc2)CC1` (racemic) [Example 243, (1R,2R,4R) and (1S,2S,4S)-4-(2-Chloro-benzenesulfonyl)-2-(4-chloro-phenoxy)-cyclopentanecarboxylic acid (1-cyano-cyclopropyl)-amide] as the molecule, how does the IC50 read?
The IC50 was 1.45 nM.

Which IC50 does the source give for `CC(C)(O[C@@H]1C[C@H](S(=O)(=O)c2ccccc2Cl)C[C@H]1C(=O)NC1(C#N)CC1)c1ccc(Cl)cc1` (racemic) [Example 244, (1R,2R,4R) and (1S,2S,4S)-2-(2-(4-chlorophenyl)propan-2-yloxy)-4-(2-chlorophenylsulfonyl)-N-(1-cyanocyclopropyl)cyclopentanecarboxamide] here?
The IC50 was 14.7 nM.

Which IC50 does the source give for `Cc1ccc(C(C)(C)O[C@@H]2C[C@H](S(=O)(=O)c3ccccc3Cl)C[C@H]2C(=O)NC2(C#N)CC2)cc1` (racemic) [Example 245, (1R,2R,4R) and (1S,2S,4S)-4-(2-chlorophenylsulfonyl)-N-(1-cyanocyclopropyl)-2-(2-p-tolylpropan-2-yloxy)cyclopentanecarboxamide] here?
The IC50 was 11.4 nM.

With `COCc1cn(-c2ccc(S(=O)(=O)[C@@H]3C[C@H](OC)[C@@H](C(=O)NC4(C#N)CC4)C3)c(C(F)(F)F)c2)nn1` (racemic) [Example 246, (1S,2S,4S) and (1R,2R,4R)-2-Methoxy-4-[4-(4-methoxymethyl-[1,2,3]triazol-1-yl)-2-trifluoromethyl-benzenesulfonyl]-cyclopentanecarboxylic acid (1-cyano-cyclopropyl)-amide] as the molecule, how does the IC50 read?
The IC50 was 1.25 nM.

How did the IC50 turn out when `N#CC1(NC(=O)[C@@H]2C[C@@H](S(=O)(=O)c3ccccc3Cl)C[C@H]2OCc2ccc(C(F)(F)F)cc2)CC1` (racemic) [Example 247, (1R,2R,4R) and (1S,2S,4S)-4-(2-chlorophenylsulfonyl)-N-(1-cyanocyclopropyl)-2-(4-(trifluoromethyl)benzyloxy)cyclopentanecarboxamide] was run?
Its IC50 is 5.98 nM.

For `CS(=O)(=O)c1cc(Cl)ccc1CO[C@@H]1C[C@H](S(=O)(=O)c2ccccc2Cl)C[C@H]1C(=O)NC1(C#N)CC1` (racemic) [Example 248, (1R,2R,4R) and (1S,2S,4S)-4-(2-Chloro-benzenesulfonyl)-2-(4-chloro-2-methanesulfonyl-benzyloxy)-cyclopentanecarboxylic acid (1-cyano-cyclopropyl)-amide], which IC50 is on record?
Its IC50 is 3.5 nM.

Which IC50 does the source give for `N#CC1(NC(=O)[C@@H]2C[C@@H](S(=O)(=O)c3ccccc3Cl)C[C@H]2OCc2ccc(Cl)c(F)c2)CC1` (racemic) [Example 249, (1R,2R,4R) and (1S,2S,4S)-4-(2-Chloro-benzenesulfonyl)-2-(4-chloro-3-fluoro-benzyloxy)-cyclopentanecarboxylic acid (1-cyano-cyclopropyl)-amide] here?
The IC50 was 6.95 nM.

`N#CC1(NC(=O)[C@@H]2C[C@@H](S(=O)(=O)c3ccccc3Cl)C[C@H]2OCc2ccc(Cl)c(Cl)c2)CC1` (racemic) [Example 250, (1R,2R,4R) and (1S,2S,4S)-4-(2-Chloro-benzenesulfonyl)-2-(3,4-dichloro-benzyloxy)-cyclopentanecarboxylic acid (1-cyano-cyclopropyl)-amide] was tested. Which IC50 did it give?
Its IC50 is 62.5 nM.

How did the IC50 turn out when `N#CC1(NC(=O)[C@@H]2C[C@@H](S(=O)(=O)c3ccccc3Cl)C[C@H]2OCc2c(F)cc(Cl)cc2F)CC1` (racemic) [Example 251, (1R,2R,4R) and (1S,2S,4S)-4-(2-Chloro-benzenesulfonyl)-2-(4-chloro-2,6-difluoro-benzyloxy)-cyclopentanecarboxylic acid (1-cyano-cyclopropyl)-amide] was run?
The IC50 was 6.11 nM.

For `N#CC1(NC(=O)[C@@H]2C[C@@H](S(=O)(=O)c3ccccc3Cl)C[C@H]2OCc2ccc(Cl)cc2F)CC1` (racemic) [Example 252, (1R,2R,4R) and (1S,2S,4S)-4-(2-Chloro-benzenesulfonyl)-2-(4-chloro-2-fluoro-benzyloxy)-cyclopentanecarboxylic acid (1-cyano-cyclopropyl)-amide], which IC50 is on record?
The IC50 was 4.99 nM.

`CO[C@H]1C[C@@H](S(=O)(=O)c2ccc(-n3cc(CCO)nn3)cc2C(F)(F)F)C[C@@H]1C(=O)NC1(C#N)CC1` (racemic) [Example 253, (1S,2S,4S) and (1R,2R,4R)-4-{4-[4-(2-Hydroxy-ethyl)-[1,2,3]triazol-1-yl]-2-trifluoromethyl-benzenesulfonyl}-2-methoxy-cyclopentanecarboxylic acid (1-cyano-cyclopropyl)-amide] was tested. Which IC50 did it give?
The IC50 was 0.675 nM.

`N#CCNC(=O)[C@@H]1C[C@@H](S(=O)(=O)c2ccccc2Cl)C[C@H]1COc1ccc(Cl)cc1` (single isomer, unassigned) [Example 68] was tested. Which IC50 did it give?
The IC50 was 2.2 nM.

`N#CCNC(=O)[C@@H]1C[C@H](S(=O)(=O)c2ccccc2Cl)C[C@H]1COc1ccc(Cl)cc1` (single isomer, unassigned) [Example 69] was tested. Which IC50 did it give?
The IC50 was 810 nM.

How did the IC50 turn out when `N#CC1(NC(=O)[C@@H]2C[C@@H](S(=O)(=O)c3ccccc3Cl)C[C@H]2COc2ccc(Cl)cc2)CC1` (single isomer, unassigned) [Example 70] was run?
Its IC50 is 3.4 nM.

Which IC50 does the source give for `N#CC1(NC(=O)[C@@H]2C[C@H](S(=O)(=O)c3ccccc3Cl)C[C@H]2COc2ccc(Cl)cc2)CC1` (single isomer, unassigned) [Example 71] here?
The IC50 was 3080 nM.

Which IC50 does the source give for `N#CC1(NC(=O)[C@H]2CC[C@H](S(=O)(=O)c3ccc(OCC(F)(F)F)cc3Cl)C2)CC1` (single isomer, unassigned) [Example 98] here?
Its IC50 is 160 nM.

How did the IC50 turn out when `N#CC1(NC(=O)[C@H]2CC[C@@H](S(=O)(=O)c3ccc(OCC(F)(F)F)cc3Cl)C2)CC1` (single isomer, unassigned) [Example 99] was run?
The IC50 was 500 nM.

With `N#CC1(NC(=O)[C@H]2CC[C@H](S(=O)(=O)c3ccc(-n4cccn4)cc3Cl)C2)CC1` (single isomer, unassigned) [Example 100] as the molecule, how does the IC50 read?
Its IC50 is 170 nM.

How did the IC50 turn out when `N#CC1(NC(=O)[C@H]2CC[C@@H](S(=O)(=O)c3ccc(-n4cccn4)cc3Cl)C2)CC1` (single isomer, unassigned) [Example 101] was run?
The IC50 was 610 nM.

With `COC[C@@H]1C[C@H](S(=O)(=O)c2ccccc2Cl)C[C@H]1C(=O)NCC#N` (single isomer, unassigned) [Example 103] as the molecule, how does the IC50 read?
The IC50 was 20.7 nM.

For `COC[C@@H]1C[C@@H](S(=O)(=O)c2ccccc2Cl)C[C@H]1C(=O)NCC#N` (single isomer, unassigned) [Example 104], which IC50 is on record?
The IC50 was 1200 nM.

`COC[C@@H]1C[C@H](S(=O)(=O)c2ccccc2Cl)C[C@H]1C(=O)NC1(C#N)CC1` (single isomer, unassigned) [Example 105] was tested. Which IC50 did it give?
The IC50 was 22.3 nM.

How did the IC50 turn out when `COC[C@@H]1C[C@@H](S(=O)(=O)c2ccccc2Cl)C[C@H]1C(=O)NC1(C#N)CC1` (single isomer, unassigned) [Example 106] was run?
Its IC50 is 1010 nM.

Which IC50 does the source give for `CO[C@@H]1C[C@H](S(=O)(=O)c2ccc(Br)cc2C(F)(F)F)C[C@H]1C(=O)NC1(C#N)CC1` (single isomer, unassigned) [Example 137] here?
Its IC50 is 4.8 nM.

How did the IC50 turn out when `N#CCNC(=O)[C@@H]1C[C@@H](S(=O)(=O)c2ccc(F)cc2Cl)C[C@H]1COc1ccc(F)cc1` (single isomer, unassigned) [Example 143] was run?
The IC50 was 0.523 nM.

For `N#CCNC(=O)[C@@H]1C[C@H](S(=O)(=O)c2ccc(F)cc2Cl)C[C@H]1COc1ccc(F)cc1` (single isomer, unassigned) [Example 144], which IC50 is on record?
The IC50 was 145 nM.

`N#CC1(NC(=O)[C@@H]2C[C@@H](S(=O)(=O)c3ccc(F)cc3Cl)C[C@H]2COc2ccc(F)cc2)CC1` (single isomer, unassigned) [Example 145] was tested. Which IC50 did it give?
Its IC50 is 1.25 nM.

`N#CC1(NC(=O)[C@@H]2C[C@H](S(=O)(=O)c3ccc(F)cc3Cl)C[C@H]2COc2ccc(F)cc2)CC1` (single isomer, unassigned) [Example 146] was tested. Which IC50 did it give?
The IC50 was 2.25 nM.

Which IC50 does the source give for `N#CCNC(=O)[C@@H]1C[C@@H](S(=O)(=O)c2ccccc2)C[C@H]1C(=O)N1CCOCC1` [Example 1, (1R,2R,4R)-4-Benzenesulfonyl-2-(morpholine-4-carbonyl)-cyclopentanecarboxylic acid cyanomethyl-amide] here?
Its IC50 is 0.6 nM.

`N#CC1(NC(=O)[C@@H]2C[C@@H](S(=O)(=O)c3ccccc3)C[C@H]2C(=O)N2CCOCC2)CC1` [Example 2, (1R,2R,4R)-4-Benzenesulfonyl-2-(morpholine-4-carbonyl)-cyclopentanecarboxylic acid (1-cyano-cyclopropyl)-amide] was tested. Which IC50 did it give?
Its IC50 is 0.7 nM.
